Measurements reported in US4485088A, “Method of treatment of fibrotic lesions by topical administration of lathyrogenic drugs” (Bio-Products, Inc., priority 1982, dated 1984).
“Also recorded” adds a separate entry of the source. Where a name gives a salt, the structure may show the parent alone. Read-outs that look alike come from different tables or passages of the source.

Legend:
[1] = tested on: lysyl oxidase; details: cited from earlier work
[2] = tested on: collagen; details: cited from earlier work
[3] = tested on: monoamine oxidase (MAO); details: cited from earlier work
[4] = tested on: lysyl oxidase; details: isoniazid with BAPN; cited from earlier work
[5] = Recovery from urine after administration on skin through hydrophilic bag container (Example 2); format: in vivo, rats
Description: The experimental conditions were similar to those of Example 1 for Group 6. A 0.4 ml solution of 1.1M β-aminopropionitrile fumarate containing 200 mg/ml and 2 μCi of the same ^14 C labeled substance was placed into a hydrophilic bag membrane. This membrane contained 80% water. The container bag was placed onto the shaved skin area of 4 cm^2, covered with impermeable occlusive dressing represented by Blenderm surgical tape (3M, Minnesota). The rats were placed in metabolic cages and at defined time intervals, the urine was collected and the amount of radioactive drug determined.
Time indicates the urine sampling period. Recovery is given in percent of the dose administered into the hydrophilic bag.

[6] = tested on: lysyl oxidase; assay: Lysyl oxidase activity in granuloma tissue after topical application (Example 4); format: in vivo, rats, Sprague-Dawley
Description: Two groups of rats, four rats in each group, 250 g body weight, Sprague-Dawley males, were implanted subcutaneously with a polyvinylalcohol sponge (Ivalon, Unipoint Labs, New Jersey) in the dorsal region through an incision distal from the placement of the sponge.
A solution of 0.1 ml of β-aminopropionitrile (200 mg BAPN/ml) was applied every 12 hours onto the skin over the implanted sponge for a total of seven days. Then the rats were sacrificed, reactive granuloma tissue excised and used for the determination of the activity of lysyl oxidase.
There were four rats in each group.
Variability is given by standard deviation.
Significance of the results tested by Student's t-test.

[7] = Topical cytotoxicity of BAPN; format: in vivo
Excerpt: Although the pathogenesis of the above disorders may differ, in every one it was postulated that the physical properties of the scar tissue were affected by abnormal cross-linking of the collagenous component. A variety of methods was proposed and used to alleviate the problems of abnormal reactivity of polymerized scar tissue (Peacock and Van Winkle 1976). […] The ideal method of topical administration would be the noninvasive percutaneous resorption of BAPN painted onto the skin as proposed in this disclosure. […] These findings assured me that topical BAPN is safe, effective and optimal therapeutic regimen to achieve significant interference with maturation of collagenous structure in tissues with an injury.

[8] = tested on: lysyl oxidase; details: single systemic moderate dose; cited from earlier work
[9] = tested on: scleroderma; details: cited from earlier work
[10] = tested on: human collagen; details: in vivo; cited from earlier work
[11] = tested on: collagen; details: cited from earlier work; remark: listed apart in the source
[12] = systemic, rats; cited from earlier work
[13] = systemic, dogs; cited from earlier work
[14] = Skin penetration of BAPN base versus BAPN fumarate; format: in vitro ADME; details: BAPN base vs BAPN fumarate
[15] = Storage stability of BAPN base; format: physicochemical
[16] = Percutaneous absorption of BAPN-fumarate, drug recovery in urine (Example 1); format: in vivo, rats, Sprague Dawley
Description: Adult rats, Sprague Dawley strain, were shaved on the dorsum. A 0.1 ml solution of 0.16M β-aminopropionitrile fumarate, containing 30 mg BAPN/ml of phosphate buffer (0.1M, pH 7.2) and for easy detection 2 μCi of ^14 C-β-aminopropionitrile fumarate was painted on the shaved skin area 2×2 cm of a rat. In another rat, the shaved skin was washed first with 2% Ivory soap, in the next group the skin area after painting was covered with occlusive bandage. In another group of rats (Table 1) the drug was administered onto the skin the drug in 60% dimethyl sulfoxide, a solvent known to increase percutaneous absorption. Finally, in the last group (Table 1), the basic solution was administered into a small container made of a hydrogel polymer. This hydrogel is characterized by containing 80% water. It makes good contact with the skin, allows penetration of the drug through the container wall, hydrates the skin under the occlusive dressing, thus enhancing the percutaneous transport.
^14 C--BAPNfumarate, 2 μCi in 30 mg BAPNfumarate/ml, 0.1 ml
*% recovered in 24 hours

[17] = Acute toxicity, LD50 (Example 3); parameters: species or system CD-1 mice; details: mouse, in vivo, 24-hour observation
Description: The determination of lethal dose, killing within a certain time after the administration of the tested drug 50% of the exposed animals, is a standard method of evaluation of the toxicity of a drug.
A total of 40 male CD-1 mice with a body weight of 20 g were injected either intraperitoneally with β-aminopropionitrile fumarate or the drug was applied in a solution onto the shaved dorsal aspect of the skin. Four dosage levels spaced in geometric progression were evaluated using five animals for each dose.

[18] = Work of flexion of tenolyzed flexor profundus tendon (Example 5); format: in vivo, White Leghorn chickens
Excerpt: will document the therapeutic effectiveness of direct infusions of β-aminopropionitrile fumarate solution into the dissected peritendinous adhesions in a rooster model of tendon injury.
Adult White Leghorn chickens were sedated with Pentothal, fixed to the operating table and given metacarpal local anesthesia with 1% xylocaine. Following surgical prep of the foot, a tourniquet was applied. Through a mid-lateral incision the sublimus tendon was removed from the long digit of both feet and a 4-0 braided stainless steel wire was passed through the entire length of the remaining profundus tendon to promote injury to the tendon by "scarification". The incision was closed with a continuous nylon suture, 4-0. Both feet were then incorporated in a plaster of Paris dressing with the feet in a functional position permitting the animals to walk while in the plaster.
Three weeks later the animals were prepared for surgery as above and the original incision was opened. A complete tenolysis was performed freeing the profundus tendon from surrounding fibrotic adhesions. […]
After 5 days of BAPN application the animals were sacrificed, the plaster dressings removed, and the legs amputated. […] The leg was then mounted in an Instron Tensiometer and measured traction was applied to the flexor profundus tendon at a rate of 2.5 cm/min while the flexion of the three digital joints was measured. […]

In the case of CC(C)(S)[C@@H](N)C(=O)O [D-penicillamine], the “Direct inhibition of lysyl oxidase” value [1] is listed as “direct inhibition of lysyl oxidase by D-penicillamine was demonstrated”, the “Changes in metal content in tissues and fluids” value ([2]; after treatment) is listed as “Striking changes in the metal content in various tissues and fluids” and the Acute hypersensitivity reactions ([2]; clinical studies, systemic) is listed as “high incidence of acute hypersensitivity reactions”. For the same molecule, the “Decrease of structural stability of collagen” value ([2]; systemic) was “well-documented”.

In the case of NNC(=O)c1ccncc1 [isoniazid], the Lysyl oxidase inhibition [1] is given as “weak lysyl oxidase and MAO inhibitor”, the “Monoamine oxidase (MAO) inhibition” value [3] is given as “weak lysyl oxidase and MAO inhibitor” and the “Lathyritic effect of BAPN in combination” value [4] is given as “potentiate the lathyritic effects of BAPN”.

For C#CCN(C)Cc1ccccc1 [pargyline], the “Monoamine oxidase (MAO) inhibition” value [3] is listed as “monoamine oxidase (MAO) inhibitor”.

In the case of N#CCCN [BAPN, β-aminopropionitrile], the “Recovery in Urine (In % of the Total Dose)” value ([5]; 4 hours) is reported as 0.5%, the “Recovery in Urine (In % of the Total Dose)” value ([5]; 8 hours) is reported as 1.01% and the “Recovery in Urine (In % of the Total Dose)” value ([5]; 12 hours) is reported as 2.37%. The “Recovery in Urine (In % of the Total Dose)” value ([5]; 24 hours) was 5.40%, the “Recovery in Urine (In % of the Total Dose)” value ([5]; 72 hours) was 9.9% and the “Recovery in Urine (In % of the Total Dose)” value ([5]; 96 hours) was 15.2%. For the same molecule, the “Recovery in Urine (In % of the Total Dose)” value ([5]; 120 hours) was 22.5%, the “Inhibition of lysyl oxidase in granuloma tissue” value ([6]; painted onto skin over implanted sponge) was “significant inhibition of the enzyme activity in the lesion; also recorded: effectively inhibits lysyl oxidase in granuloma tissue” and the “Topical cytotoxicity, morphological or ultrastructural” value [7] was “no morphological or ultrastructural evidence of topical cytotoxicity is found”. The “Concentration inhibiting lysyl oxidase” value [1] was 10^-7 M, the “Effectiveness as lathyrogenic agent on lysyl oxidase” value [1] was “the most effective” and the “Reversibility of lysyl oxidase inhibition” value [1] was “irreversible”. The “Time to recovery of lysyl oxidase activity in granuloma tissue” value [8] was 6 to 12 h, the “Toxic side effects, short-term treatment” value ([9]; 2 g/day, short-term) was “no toxic side effects were noted” and the “Adverse reactions, longer courses” value ([9]; longer courses of treatment) was “prohibitive reactions, such as allergic skin rash and hemolytic anemia”. The “Covalent bonding of human collagen / clinical benefit” value [10] was “decreased covalent bonding of human collagen with significant clinical benefit was demonstrated”, the Hypersensitivity [10] was “a significant number of the patients exhibited hypersensitivity to the agent” and the “General toxicity at lathyrogenic dosages” value ([11]; systemic, animals) was “the animals stop growing, lose body weight and lower their food intake”. For the same molecule, the “Blocking the polymerization of collagen” value ([11]; various animal models of fibrotic lesion) was “very effective”, the Side effects [12] was “undesirable side effects” and the “Tendon gliding / joint stiffness” value [12] was “significantly improve the tendon gliding fraction or reduce stiffness”. For the same molecule, the Side effects [13] was “undesirable side effects” and the “Tendon gliding / joint stiffness” value [13] was “significantly improve the tendon gliding fraction or reduce stiffness”.

For N#CCN [aminoacetonitrile], the “Effectiveness as lathyrogenic agent on lysyl oxidase” value [1] is listed as “the most effective”.

For N#CCCN [BAPN base], the “Skin penetration relative to BAPN fumarate” value [14] was “approximately five times faster”, the “Skin penetration relative to BAPN fumarate” value ([14]; listed as BAPN-base) was “higher penetration” and the Stability under storage [15] was “unstable under storage, undergoing hydrolysis forming ammonia and toxic acrylonitrile”.

In the case of N#CCCN [BAPN-fumarate, β-aminopropionitrile fumarate], the “Increase of delivery, Group 6 compared with Group 1” value ([16]; hydrophilic container with occlusive dressing vs phosphate buffer on intact skin) is reported as ~40 times, the “Drug Recovery in the Urine, % Recovered in 6 hours” value ([16]; in phosphate buffer in 60% DMSO) is reported as 11.66% and the “Drug Recovery in the Urine, % Recovered in 6 hours” value ([16]; in phosphate buffer in 60% DMSO, skin washed in 2% Ivory soap) is reported as 10.10%. The “Drug Recovery in the Urine, % Recovered in 6 hours” value ([16]; in phosphate buffer on intact skin) was 0.97%, the “Drug Recovery in the Urine, % Recovered in 6 hours” value ([16]; in phosphate buffer, skin washed with 2% Ivory soap) was 2.17% and the “Drug Recovery in the Urine, % Recovered in 6 hours” value ([16]; in phosphate buffer, skin washed with 2% Ivory soap, occlusive bandage) was 10.56%. The “Drug Recovery in the Urine, % recovered in 24 hours” value ([16]; in phosphate buffer, skin washed with 2% Ivory soap, hydrophilic container, occlusive bandage, 24 hours) was 35.00%, the “Release / penetration over time” value ([5]; 120 hours of observation) was “continuous at the constant rate” and the LD50 at 24 h ([17]; ip, intraperitoneally) was 3000 mg/kg. The LD50 at 24 h ([17]; topical or ocular, percutaneously) was 23100 mg/kg, the “Lysyl Oxidase Activity in the granuloma tissue” value ([6]; topical, 0.1 ml of 200 mg/ml every 12 hours for seven days, control 36.2 ± 7.1, P < 0.001, standard deviation) was 1.8 ± 0.3 DPM/mg protein and the Tendon gliding ([18]; topical infusion) was “glided more easily; much lower force was needed to flex the finger”. For the same molecule, the “Work of Flexion (Mean)” value ([18]; topical infusion every 12 hours for 5 days, 300 mg/ml, SD 4.25, saline control 44.8 (SD 9.9), P < 0.01) was 13.10 gm/degree.
